ChEMBL document CHEMBL3822423 (J Med Chem, 2016)
Values after ≈ are worked out from the molar mass of the structure shown. Active and inactive are the calls of the source. The rule behind the calls is not given here.

Tested on: Micrococcus luteus
Test: Antibacterial activity against Micrococcus luteus ATCC 4698 after 18 to 24 hrs
Type: functional
Conditions: NCTC 2665

| SMILES | MIC |
| --- | --- |
| CCn1cc(C(C)=O)c(=O)c2cc(F)c(N3CCOCC3)cc21 | 128 µg/mL (≈ 402 µM) |
| CCn1cc(-c2csc(N)n2)c(=O)c2cc(C)ccc21 | 5.4 µg/mL (≈ 18.9 µM) |
| CCn1cc(-c2csc(N)n2)c(=O)c2cc(F)c(Cl)cc21 | 26.6 µg/mL (≈ 82.2 µM) |
| CCn1cc(-c2csc(N)n2)c(=O)c2cc(F)c(N3CCN(C(=O)OC(C)(C)C)CC3)cc21 | 32 µg/mL (≈ 67.6 µM) |
| CCn1cc(C(C)=O)c(=O)c2cc(F)c(N3CCCCC3)cc21 | 10.1 µg/mL (≈ 31.9 µM) |
| CCn1cc(-c2csc(N)n2)c(=O)c2cc(N3CCNCC3)c(Cl)cc21 | 32 µg/mL (≈ 82.1 µM) |
| CCn1cc(-c2csc(N)n2)c(=O)c2cc(F)cc(F)c21 | 256 µg/mL (≈ 833 µM) |
| CCn1cc(C(C)=O)c(=O)c2cc(F)c(N3CCCC3)cc21 | 244 µg/mL (≈ 808 µM) |
| CCn1cc(C(C)=O)c(=O)c2cc(N3CCOCC3)c(Cl)cc21 | 53.3 µg/mL (≈ 159 µM) |
| CCn1cc(-c2csc(N)n2)c(=O)c2ccc(C(F)(F)F)cc21 | inactive |
| CCn1cc(-c2csc(N)n2)c(=O)c2cc(OC)ccc21 | 42.7 µg/mL (≈ 142 µM) |
| CCn1cc(-c2csc(N)n2)c(=O)c2cc(F)c(N3CCNCC3)cc21 | 64.2 µg/mL (≈ 172 µM) |

Tested on: Staphylococcus aureus
Test: Antibacterial activity against methicillin-resistant Staphylococcus aureus N315 after 18 to 24 hrs
Type: functional
Conditions: not given

| SMILES | MIC |
| --- | --- |
| CCn1cc(C(C)=O)c(=O)c2cc(F)c(N3CCOCC3)cc21 | 256 µg/mL (≈ 804 µM) |
| CCn1cc(-c2csc(N)n2)c(=O)c2cc(C)ccc21 | 129 µg/mL (≈ 451 µM) |
| CCn1cc(-c2csc(N)n2)c(=O)c2cc(F)c(Cl)cc21 | 8 µg/mL (≈ 24.7 µM) |
| CCn1cc(-c2csc(N)n2)c(=O)c2cc(F)c(N3CCN(C(=O)OC(C)(C)C)CC3)cc21 | 10.7 µg/mL (≈ 22.6 µM) |
| CCn1cc(C(C)=O)c(=O)c2cc(F)c(N3CCCCC3)cc21 | 17.8 µg/mL (≈ 56.3 µM) |
| CCn1cc(-c2csc(N)n2)c(=O)c2cc(N3CCNCC3)c(Cl)cc21 | inactive |
| CCn1cc(-c2csc(N)n2)c(=O)c2cc(F)cc(F)c21 | inactive |
| CCn1cc(C(C)=O)c(=O)c2cc(F)c(N3CCCC3)cc21 | 50.9 µg/mL (≈ 168 µM) |
| CCn1cc(C(C)=O)c(=O)c2cc(N3CCOCC3)c(Cl)cc21 | 128 µg/mL (≈ 382 µM) |
| CCn1cc(-c2csc(N)n2)c(=O)c2ccc(C(F)(F)F)cc21 | 53.2 µg/mL (≈ 157 µM) |
| CCn1cc(-c2csc(N)n2)c(=O)c2cc(OC)ccc21 | 256 µg/mL (≈ 849 µM) |
| CCn1cc(-c2csc(N)n2)c(=O)c2cc(F)c(N3CCNCC3)cc21 | 32.1 µg/mL (≈ 86 µM) |

Tested on: Staphylococcus aureus
Test: Antibacterial activity against Staphylococcus aureus ATCC 25923 after 18 to 24 hrs
Type: functional
Conditions: not given

| SMILES | MIC |
| --- | --- |
| CCn1cc(C(C)=O)c(=O)c2cc(F)c(N3CCOCC3)cc21 | 53.3 µg/mL (≈ 167 µM) |
| CCn1cc(-c2csc(N)n2)c(=O)c2cc(C)ccc21 | 2.4 µg/mL (≈ 8.41 µM) |
| CCn1cc(-c2csc(N)n2)c(=O)c2cc(F)c(Cl)cc21 | inactive |
| CCn1cc(-c2csc(N)n2)c(=O)c2cc(F)c(N3CCN(C(=O)OC(C)(C)C)CC3)cc21 | 64 µg/mL (≈ 135 µM) |
| CCn1cc(C(C)=O)c(=O)c2cc(F)c(N3CCCCC3)cc21 | 8.9 µg/mL (≈ 28.1 µM) |
| CCn1cc(-c2csc(N)n2)c(=O)c2cc(N3CCNCC3)c(Cl)cc21 | 8 µg/mL (≈ 20.5 µM) |
| CCn1cc(-c2csc(N)n2)c(=O)c2cc(F)cc(F)c21 | inactive |
| CCn1cc(C(C)=O)c(=O)c2cc(F)c(N3CCCC3)cc21 | 5.1 µg/mL (≈ 16.9 µM) |
| CCn1cc(C(C)=O)c(=O)c2cc(N3CCOCC3)c(Cl)cc21 | inactive |
| CCn1cc(-c2csc(N)n2)c(=O)c2ccc(C(F)(F)F)cc21 | 128 µg/mL (≈ 377 µM) |
| CCn1cc(-c2csc(N)n2)c(=O)c2cc(OC)ccc21 | 18.8 µg/mL (≈ 62.4 µM) |
| CCn1cc(-c2csc(N)n2)c(=O)c2cc(F)c(N3CCNCC3)cc21 | 16 µg/mL (≈ 42.8 µM) |

Tested on: Bacillus spizizenii
Test: Antibacterial activity against Bacillus subtilis ATCC 6633 after 18 to 24 hrs
Type: functional
Conditions: not given

| SMILES | MIC |
| --- | --- |
| CCn1cc(C(C)=O)c(=O)c2cc(F)c(N3CCOCC3)cc21 | inactive |
| CCn1cc(-c2csc(N)n2)c(=O)c2cc(C)ccc21 | 64.4 µg/mL (≈ 226 µM) |
| CCn1cc(-c2csc(N)n2)c(=O)c2cc(F)c(Cl)cc21 | 10.6 µg/mL (≈ 32.7 µM) |
| CCn1cc(-c2csc(N)n2)c(=O)c2cc(F)c(N3CCN(C(=O)OC(C)(C)C)CC3)cc21 | 42.7 µg/mL (≈ 90.2 µM) |
| CCn1cc(C(C)=O)c(=O)c2cc(F)c(N3CCCCC3)cc21 | 12.7 µg/mL (≈ 40.1 µM) |
| CCn1cc(-c2csc(N)n2)c(=O)c2cc(N3CCNCC3)c(Cl)cc21 | 2 µg/mL (≈ 5.13 µM) |
| CCn1cc(-c2csc(N)n2)c(=O)c2cc(F)cc(F)c21 | inactive |
| CCn1cc(C(C)=O)c(=O)c2cc(F)c(N3CCCC3)cc21 | 244 µg/mL (≈ 809 µM) |
| CCn1cc(C(C)=O)c(=O)c2cc(N3CCOCC3)c(Cl)cc21 | inactive |
| CCn1cc(-c2csc(N)n2)c(=O)c2ccc(C(F)(F)F)cc21 | 63.9 µg/mL (≈ 188 µM) |
| CCn1cc(-c2csc(N)n2)c(=O)c2cc(OC)ccc21 | 10.7 µg/mL (≈ 35.5 µM) |
| CCn1cc(-c2csc(N)n2)c(=O)c2cc(F)c(N3CCNCC3)cc21 | 10.7 µg/mL (≈ 28.7 µM) |

Tested on: Pseudomonas aeruginosa
Test: Antibacterial activity against Pseudomonas aeruginosa ATCC 9027 after 18 to 24 hrs
Type: functional
Conditions: not given

| SMILES | MIC |
| --- | --- |
| CCn1cc(C(C)=O)c(=O)c2cc(F)c(N3CCOCC3)cc21 | 256 µg/mL (≈ 804 µM) |
| CCn1cc(-c2csc(N)n2)c(=O)c2cc(C)ccc21 | 2.7 µg/mL (≈ 9.46 µM) |
| CCn1cc(-c2csc(N)n2)c(=O)c2cc(F)c(Cl)cc21 | 1.6 µg/mL (≈ 4.94 µM) |
| CCn1cc(-c2csc(N)n2)c(=O)c2cc(F)c(N3CCN(C(=O)OC(C)(C)C)CC3)cc21 | 8 µg/mL (≈ 16.9 µM) |
| CCn1cc(C(C)=O)c(=O)c2cc(F)c(N3CCCCC3)cc21 | 22.8 µg/mL (≈ 72.1 µM) |
| CCn1cc(-c2csc(N)n2)c(=O)c2cc(N3CCNCC3)c(Cl)cc21 | 10.7 µg/mL (≈ 27.4 µM) |
| CCn1cc(-c2csc(N)n2)c(=O)c2cc(F)cc(F)c21 | inactive |
| CCn1cc(C(C)=O)c(=O)c2cc(F)c(N3CCCC3)cc21 | 12.7 µg/mL (≈ 42 µM) |
| CCn1cc(C(C)=O)c(=O)c2cc(N3CCOCC3)c(Cl)cc21 | 42.7 µg/mL (≈ 128 µM) |
| CCn1cc(-c2csc(N)n2)c(=O)c2ccc(C(F)(F)F)cc21 | 13.3 µg/mL (≈ 39.2 µM) |
| CCn1cc(-c2csc(N)n2)c(=O)c2cc(OC)ccc21 | 21.3 µg/mL (≈ 70.7 µM) |
| CCn1cc(-c2csc(N)n2)c(=O)c2cc(F)c(N3CCNCC3)cc21 | 4 µg/mL (≈ 10.7 µM) |

Tested on: Escherichia coli
Test: Antibacterial activity against Escherichia coli ATCC 25922 after 18 to 24 hrs
Type: functional
Conditions: not given

| SMILES | MIC |
| --- | --- |
| CCn1cc(C(C)=O)c(=O)c2cc(F)c(N3CCOCC3)cc21 | 256 µg/mL (≈ 804 µM) |
| CCn1cc(-c2csc(N)n2)c(=O)c2cc(C)ccc21 | 4.7 µg/mL (≈ 16.5 µM) |
| CCn1cc(-c2csc(N)n2)c(=O)c2cc(F)c(Cl)cc21 | 6.7 µg/mL (≈ 20.7 µM) |
| CCn1cc(-c2csc(N)n2)c(=O)c2cc(F)c(N3CCN(C(=O)OC(C)(C)C)CC3)cc21 | 10.7 µg/mL (≈ 22.6 µM) |
| CCn1cc(C(C)=O)c(=O)c2cc(F)c(N3CCCCC3)cc21 | 40.6 µg/mL (≈ 128 µM) |
| CCn1cc(-c2csc(N)n2)c(=O)c2cc(N3CCNCC3)c(Cl)cc21 | 128 µg/mL (≈ 328 µM) |
| CCn1cc(-c2csc(N)n2)c(=O)c2cc(F)cc(F)c21 | 64 µg/mL (≈ 208 µM) |
| CCn1cc(C(C)=O)c(=O)c2cc(F)c(N3CCCC3)cc21 | 43.3 µg/mL (≈ 143 µM) |
| CCn1cc(C(C)=O)c(=O)c2cc(N3CCOCC3)c(Cl)cc21 | inactive |
| CCn1cc(-c2csc(N)n2)c(=O)c2ccc(C(F)(F)F)cc21 | 5.3 µg/mL (≈ 15.6 µM) |
| CCn1cc(-c2csc(N)n2)c(=O)c2cc(OC)ccc21 | 13.3 µg/mL (≈ 44.1 µM) |
| CCn1cc(-c2csc(N)n2)c(=O)c2cc(F)c(N3CCNCC3)cc21 | 16 µg/mL (≈ 42.8 µM) |

Tested on: not listed separately
Test: (§1) Antibacterial activity against Eberthella typhosa ATCC 14028 after 18 to 24 hrs
Type: functional
Conditions: not given

| SMILES | MIC [µg/mL] |
| --- | --- |
| CCn1cc(C(C)=O)c(=O)c2cc(F)c(N3CCOCC3)cc21 | 2.3 (≈ 7.22 µM) |
| CCn1cc(-c2csc(N)n2)c(=O)c2cc(C)ccc21 | 24.1 (≈ 84.5 µM) |
| CCn1cc(-c2csc(N)n2)c(=O)c2cc(F)c(Cl)cc21 | 2.6 (≈ 8.03 µM) |
| CCn1cc(-c2csc(N)n2)c(=O)c2cc(F)c(N3CCN(C(=O)OC(C)(C)C)CC3)cc21 | 5.3 (≈ 11.2 µM) |
| CCn1cc(C(C)=O)c(=O)c2cc(F)c(N3CCCCC3)cc21 | 121 (≈ 383 µM) |
| CCn1cc(-c2csc(N)n2)c(=O)c2cc(N3CCNCC3)c(Cl)cc21 | 8 (≈ 20.5 µM) |
| CCn1cc(C(C)=O)c(=O)c2cc(F)c(N3CCCC3)cc21 | 122 (≈ 404 µM) |
| CCn1cc(C(C)=O)c(=O)c2cc(N3CCOCC3)c(Cl)cc21 | 37.3 (≈ 111 µM) |
| CCn1cc(-c2csc(N)n2)c(=O)c2ccc(C(F)(F)F)cc21 | 1.7 (≈ 5.01 µM) |
| CCn1cc(-c2csc(N)n2)c(=O)c2cc(OC)ccc21 | 8 (≈ 26.5 µM) |
| CCn1cc(-c2csc(N)n2)c(=O)c2cc(F)c(N3CCNCC3)cc21 | 10.7 (≈ 28.7 µM) |

Tested on: Eberthella typhosa
Test: as §1
Type: functional
Conditions: not given

| SMILES | MIC |
| --- | --- |
| CCn1cc(-c2csc(N)n2)c(=O)c2cc(F)cc(F)c21 | inactive |

Tested on: Bacillus
Test: Antibacterial activity against Bacillus proteus ATCC 13315 after 18 to 24 hrs
Type: functional
Conditions: not given

| SMILES | MIC |
| --- | --- |
| CCn1cc(C(C)=O)c(=O)c2cc(F)c(N3CCOCC3)cc21 | 2.7 µg/mL (≈ 8.48 µM) |
| CCn1cc(-c2csc(N)n2)c(=O)c2cc(C)ccc21 | 0.8 µg/mL (≈ 2.8 µM) |
| CCn1cc(-c2csc(N)n2)c(=O)c2cc(F)c(Cl)cc21 | 3.3 µg/mL (≈ 10.2 µM) |
| CCn1cc(-c2csc(N)n2)c(=O)c2cc(F)c(N3CCN(C(=O)OC(C)(C)C)CC3)cc21 | 2.6 µg/mL (≈ 5.49 µM) |
| CCn1cc(C(C)=O)c(=O)c2cc(F)c(N3CCCCC3)cc21 | 20.3 µg/mL (≈ 64.2 µM) |
| CCn1cc(-c2csc(N)n2)c(=O)c2cc(N3CCNCC3)c(Cl)cc21 | 6.4 µg/mL (≈ 16.4 µM) |
| CCn1cc(-c2csc(N)n2)c(=O)c2cc(F)cc(F)c21 | inactive |
| CCn1cc(C(C)=O)c(=O)c2cc(F)c(N3CCCC3)cc21 | 33.1 µg/mL (≈ 109 µM) |
| CCn1cc(C(C)=O)c(=O)c2cc(N3CCOCC3)c(Cl)cc21 | 13.3 µg/mL (≈ 39.7 µM) |
| CCn1cc(-c2csc(N)n2)c(=O)c2ccc(C(F)(F)F)cc21 | 13.3 µg/mL (≈ 39.2 µM) |
| CCn1cc(-c2csc(N)n2)c(=O)c2cc(OC)ccc21 | 2.7 µg/mL (≈ 8.96 µM) |
| CCn1cc(-c2csc(N)n2)c(=O)c2cc(F)c(N3CCNCC3)cc21 | 2 µg/mL (≈ 5.36 µM) |
